Measured values reported in PMC12881674, “Activation of TRPV3 channels in bladder cancer cells stimulates ATP release” (Molecular Pharmacology, 2025).

Target: T1, mouse TRPV3 (Mus musculus, UniProt Q8K424)
T1 construct: expressed in transfected cells; host or cells: HEK293
T1 sequence (Q8K424 1-791): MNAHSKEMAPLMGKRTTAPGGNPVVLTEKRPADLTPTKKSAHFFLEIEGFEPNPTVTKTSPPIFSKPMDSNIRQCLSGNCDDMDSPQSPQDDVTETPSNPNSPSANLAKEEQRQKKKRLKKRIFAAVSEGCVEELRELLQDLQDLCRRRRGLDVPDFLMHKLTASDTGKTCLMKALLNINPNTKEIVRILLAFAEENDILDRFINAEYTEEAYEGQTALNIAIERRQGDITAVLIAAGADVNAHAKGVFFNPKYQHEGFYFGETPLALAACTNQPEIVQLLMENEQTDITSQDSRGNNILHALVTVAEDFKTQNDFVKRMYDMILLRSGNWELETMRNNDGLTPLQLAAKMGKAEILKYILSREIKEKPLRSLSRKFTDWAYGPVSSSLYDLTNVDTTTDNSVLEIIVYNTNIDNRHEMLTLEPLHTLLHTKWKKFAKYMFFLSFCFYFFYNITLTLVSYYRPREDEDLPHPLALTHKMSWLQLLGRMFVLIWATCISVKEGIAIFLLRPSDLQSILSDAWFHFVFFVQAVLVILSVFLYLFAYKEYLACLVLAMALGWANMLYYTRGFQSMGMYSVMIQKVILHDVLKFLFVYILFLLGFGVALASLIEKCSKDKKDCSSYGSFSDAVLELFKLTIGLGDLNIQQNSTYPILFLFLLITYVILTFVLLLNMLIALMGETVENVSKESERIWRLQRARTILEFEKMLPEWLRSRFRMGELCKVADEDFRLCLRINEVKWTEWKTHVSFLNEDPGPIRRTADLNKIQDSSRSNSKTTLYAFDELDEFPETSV
Experiment: fluo-4 fluorometric Ca2+ assay, concentration-response, HEK cells expressing mouse TRPV3
Type: cell-based
Details: HEK cells expressing mouse TRPV3, fluo-4, room temperature, mean ± SD back-transformed from log space, n=5; read-out: EC50 for mouse TRPV3 activation
From the text: KU-19-19 (DSMZ no. ACC 395), CAL-29 (DSMZ no. ACC 515), 647-V (DSMZ no. ACC 414), RT-4 (DSMZ no. ACC 412), and RT-112 (DSMZ no. ACC 418) bladder cancer cell lines were obtained from the Leibniz Institute DSMZ (German Collection of Microorganisms and Cell Cultures). Human TRPV3 (NM_145068, purchased from OriGene) and mouse TRPV3 (NM_001371006), rat TRPV1, mouse TRPV2, mouse TRPV4, human TRPM2, human TRPM8, and human TRPA1 were stably transfected in HEK293 cells as described before.[27] […]
All fluorometric Ca^2+ assays were performed in HBS buffer at room temperature. […] For the primary compound screening and the generation of concentration-response analyses, a robotic liquid handling station (Freedom Evo 150; Tecan) with a built-in custom-made fluorescence plate imager was used. […] Fluorescence was excited using a 470-nm light-emitting diode, and emitted light was imaged through a 515-nm–long pass filter with a cooled Zyla 5.5 camera (Andor). Fluorescence was recorded and processed under the control of the μ-Manager 2.0 gamma software (https://micro-manager.org.[28]). After recording baseline fluorescence, compounds were dispensed into the wells via the liquid handling device. […] For further analysis, fluorescence signals were calculated for each well, corrected for background intensities and normalized to the initial signals. […]

COC(=O)C12CN(Cc3ccccc3)CC1(C(=O)OC)CN(Cc1ccccc1)C2 (stereo not shown) [AV3-1]
EC50: 2000 ± 1400 nM
